According to US7935687B2, “Methods for treating spinal muscular atrophy using tetracycline compounds” (Paratek Pharmaceuticals, Inc., priority 2007, dated 2011):

Assays:
E. coli (EC D1-209) = test: Antibacterial MIC, gram negative; type: cell-based; conditions: CLSI methodology, 35° C., 18-24 hours
SMN2 mRNA = test: In vitro cell-free splicing assay for inclusion of exon 7; type: biochemical; conditions: HeLa cell nuclear extract, 30° C., 3 hours
Procedure: The following example illustrates how tetracycline compound of the invention are active in an in vitro cell-free assay for the inclusion of exon 7 in […] mRNA. SMN1 and SMN2 pre-mRNA were prepared by in vitro transcription using T7 RNA polymerase of minigene templates that include exon 6, a truncated portion of intron 6, exon 7, intron 7 and a portion of exon 8 in the presence of ^32P-UTP. Labeled RNA was purified on a denaturing polyacrylamide gel followed by phenol extraction and ethanol precipitation of the RNA.
In vitro cell-free splicing of SMN1 and SMN2 transcripts was carried out in a 10 μl reaction volume at 30° C. for 3 hours. The reactions contained 10 fmol of labeled pre-mRNA, 30% (3 VI) HeLa cell nuclear extract (in 20 mM HEPES, pH 7.4, 20% (v/v) glycerol, 0.1M KC1, 0.2 mM EDTA), 1.3% (w/v) polyvinyl alcohol, 1.56 mM MgCl2, 32 mM HEPES, pH 7.4, 0.5 mM ATP, 20 mM creatine phosphate and either 2 μl of test compound (in 20 mM HEPES, pH 7.4, 0.1M KC1, 0.2 mM EDTA) or buffer alone. Following incubation, 200 μl of a solution containing 0.3M NaAc and 0.2% SDS was added to the reaction. Proteins were removed by extraction with an equal volume of phenol and RNA was precipitated with 2.5 volumes of ethanol. RNA was resuspended in formamide sample buffer and separated on a 9% urea-denaturing polyacrylamide gel. Quantitation of splicing was based on phosphorimage analysis (Fujix BAS2000 or Fujifilm FLA-5100). In this assay, percentage exon 7 inclusion averages 12% for the unmutated SMN1 mRNA and 4% for the SMN2 mRNA.
The in vitro activities for exon 7 splicing are expressed as the Emax (the maximum percentage exon 7 inclusion observed) and Cmax (the lowest compound concentration at which the maximum inclusion occurs in μM). For Emax, percentage inclusion values of less than 10% are indicated by “*”, values of 10-20% are indicated by “**”, and values greater than 20% are indicated by “***”. For Cmax data, concentrations of greater than 40 μM are indicated by “*”, concentrations between 40 and 10 μM are represented by “**” and concentrations of less than 10 μM are represented by “***”.

S. aureus (SA RN450) = test: Antibacterial MIC, gram positive; type: cell-based; conditions: CLSI methodology, 35° C., 18-24 hours

SMILES | MIC Gram Negative (EC D1-209) (E. coli (EC D1-209)) | Cmax (lowest compound concentration at which the maximum exon 7 inclusion occurs) (SMN2 mRNA) | Emax (maximum percentage exon 7 inclusion observed) (SMN2 mRNA) | MIC Gram Positive (SA RN450) (S. aureus (SA RN450))
CN(C)C1C(O)=C(C(N)=O)C(=O)C2(O)C(O)=C3C(=O)c4c(O)ccc(-c5ccc(NC(=O)CNC(C)(C)C)cc5)c4CC3CC12 (centres unmarked) [AF] | *** (Good antibacterial activity (e.g., less than about 4 μg/mL)) | *** (concentrations of less than 10 μM) | * (percentage inclusion values of less than 10%) | *** (Good antibacterial activity (e.g., less than about 4 μg/mL))
COCCNCC(=O)c1ccc(O)c2c1CC1CC3C(N(C)C)C(O)=C(C(N)=O)C(=O)C3(O)C(O)=C1C2=O (centres unmarked) [AG] | * (weak antibacterial activity (greater than about 8 μg/mL)) | ** (concentrations between 40 and 10 μM) | * (percentage inclusion values of less than 10%) | ** (modest antibacterial activity (between about 4 and 8 μg/mL))
CN(C)CCNC(=O)c1ccc(O)c2c1CC1CC3C(N(C)C)C(O)=C(C(N)=O)C(=O)C3(O)C(O)=C1C2=O (centres unmarked) [AH] | * (weak antibacterial activity (greater than about 8 μg/mL)) | ** (concentrations between 40 and 10 μM) | * (percentage inclusion values of less than 10%) | * (weak antibacterial activity (greater than about 8 μg/mL))
COc1ccc(CNCc2ccc(-c3ccc(O)c4c3CC3CC5C(N(C)C)C(O)=C(C(N)=O)C(=O)C5(O)C(O)=C3C4=O)cc2)cc1 (centres unmarked) [AW] | *** (Good antibacterial activity (e.g., less than about 4 μg/mL)) | *** (concentrations of less than 10 μM) | ** (values of 10-20%) | *** (Good antibacterial activity (e.g., less than about 4 μg/mL))
CN(C)C1C(O)=C(C(N)=O)C(=O)C2(O)C(O)=C3C(=O)c4c(O)ccc(-c5ccc(CN6CCOCC6)o5)c4CC3CC12 (centres unmarked) [AX] | ** (modest antibacterial activity (between about 4 and 8 μg/mL)) | *** (concentrations of less than 10 μM) | ** (values of 10-20%) | *** (Good antibacterial activity (e.g., less than about 4 μg/mL))
CN1CCN(Cc2ccc(-c3ccc(O)c4c3CC3CC5C(N(C)C)C(O)=C(C(N)=O)C(=O)C5(O)C(O)=C3C4=O)o2)CC1 (centres unmarked) [AY] | * (weak antibacterial activity (greater than about 8 μg/mL)) | *** (concentrations of less than 10 μM) | *** (values greater than 20%) | *** (Good antibacterial activity (e.g., less than about 4 μg/mL))
CON=Cc1ccc(-c2ccc(O)c3c2CC2CC4C(N(C)C)C(O)=C(C(N)=O)C(=O)C4(O)C(O)=C2C3=O)o1 (centres unmarked) [AZ] | * (weak antibacterial activity (greater than about 8 μg/mL)) | *** (concentrations of less than 10 μM) | ** (values of 10-20%) | *** (Good antibacterial activity (e.g., less than about 4 μg/mL))
COc1ccc(-c2ccc(O)c3c2CC2CC4C(N(C)C)C(O)=C(C(N)=O)C(=O)C4(O)C(O)=C2C3=O)cc1CNCC(N)=O (centres unmarked) [BE] | * (weak antibacterial activity (greater than about 8 μg/mL)) | *** (concentrations of less than 10 μM) | ** (values of 10-20%) | *** (Good antibacterial activity (e.g., less than about 4 μg/mL))
CN(C)C1C(O)=C(C(N)=O)C(=O)C2(O)C(O)=C3C(=O)c4c(O)ccc(-c5coc(CN6CCCCC6)c5)c4CC3CC12 (centres unmarked) [BF] | *** (Good antibacterial activity (e.g., less than about 4 μg/mL)) | *** (concentrations of less than 10 μM) | ** (values of 10-20%) | *** (Good antibacterial activity (e.g., less than about 4 μg/mL))
CN(C)C1C(O)=C(C(N)=O)C(=O)C2(O)C(O)=C3C(=O)c4c(O)ccc(-c5ccc(CNCc6cccnc6)o5)c4CC3CC12 (centres unmarked) [BI] | *** (Good antibacterial activity (e.g., less than about 4 μg/mL)) | *** (concentrations of less than 10 μM) | ** (values of 10-20%) | *** (Good antibacterial activity (e.g., less than about 4 μg/mL))
CN(Cc1cccnc1)Cc1cccc(-c2ccc(O)c3c2CC2CC4C(N(C)C)C(O)=C(C(N)=O)C(=O)C4(O)C(O)=C2C3=O)c1 (centres unmarked) [BJ] | * (weak antibacterial activity (greater than about 8 μg/mL)) | *** (concentrations of less than 10 μM) | ** (values of 10-20%) | *** (Good antibacterial activity (e.g., less than about 4 μg/mL))
CN(CCC#N)Cc1cccc(-c2ccc(O)c3c2CC2CC4C(N(C)C)C(O)=C(C(N)=O)C(=O)C4(O)C(O)=C2C3=O)c1 (centres unmarked) [BL] | * (weak antibacterial activity (greater than about 8 μg/mL)) | * (concentrations of greater than 40 μM) | ** (values of 10-20%) | *** (Good antibacterial activity (e.g., less than about 4 μg/mL))
COCCNCc1ccoc1-c1ccc(O)c2c1CC1CC3C(N(C)C)C(O)=C(C(N)=O)C(=O)C3(O)C(O)=C1C2=O (centres unmarked) [BQ] | * (weak antibacterial activity (greater than about 8 μg/mL)) | *** (concentrations of less than 10 μM) | ** (values of 10-20%) | *** (Good antibacterial activity (e.g., less than about 4 μg/mL))
CC(=O)N1CCN(CC(=O)c2ccc(O)c3c2CC2CC4C(N(C)C)C(O)=C(C(N)=O)C(=O)C4(O)C(O)=C2C3=O)CC1 (centres unmarked) [BS] | * (weak antibacterial activity (greater than about 8 μg/mL)) | * (concentrations of greater than 40 μM) | ** (values of 10-20%) | *** (Good antibacterial activity (e.g., less than about 4 μg/mL))
CN(C)C1C(O)=C(C(N)=O)C(=O)C2(O)C(O)=C3C(=O)c4c(O)ccc(-c5cnc6ccccc6c5)c4CC3CC12 (centres unmarked) [G] | * (weak antibacterial activity (greater than about 8 μg/mL)) |  |  | *** (Good antibacterial activity (e.g., less than about 4 μg/mL))
CN(C)CCN(C)C(=O)c1cccc(-c2ccc(O)c3c2CC2CC4C(N(C)C)C(O)=C(C(N)=O)C(=O)C4(O)C(O)=C2C3=O)c1 (centres unmarked) [R] | * (weak antibacterial activity (greater than about 8 μg/mL)) |  |  | *** (Good antibacterial activity (e.g., less than about 4 μg/mL))
CN(C)CCCOc1ccc(-c2ccc(O)c3c2CC2CC4C(N(C)C)C(O)=C(C(N)=O)C(=O)C4(O)C(O)=C2C3=O)cn1 (centres unmarked) [W] | *** (Good antibacterial activity (e.g., less than about 4 μg/mL)) |  |  | *** (Good antibacterial activity (e.g., less than about 4 μg/mL))
